In ChEMBL document CHEMBL4483862, “Open-source discovery of chemical leads for next-generation chemoprotective antimalarials” (2018):

System: Plasmodium berghei
Assay: Luciferase/luciferin-expressing antifolate-resistant parasites were used to infect a culture of HepG2 cells that were pre-incubated with compounds. Infected hepatocytes emit light due to the luciferase reaction. Assay results are presented as the percent inhibition of light emission compared to control. […]
Format: functional
Conditions: sporozoite; for IC90: read-out: LUCIFERASE INFECTION ASSAY - IC90

| Compound | IC90 [µM] | further results |
| --- | --- | --- |
| CCn1nc(C)cc1-c1nnc(Sc2ncc([N+](=O)[O-])s2)n1C | 8.02 | IC50 (FFLUC_HILL_SLOPE 4.24, FFLUC_R_SQUARED 0.134, HEPG2TOX_HILL_SLOPE 11.7, HEPG2TOX_R_SQUARED 0.968, PBLUC_HILL_SLOPE 3.63, PBLUC_R_SQUARED 0.242, read-out: LUCIFERASE INFECTION ASSAY - IC50): 4.38 µM |
| O=C1NC(c2ccccc2)=C(c2nc3ccccc3s2)C(c2cccs2)N1 (stereo unspecified) | > 10 | IC50 (FFLUC_HILL_SLOPE 4.26, FFLUC_R_SQUARED 0.397, PBLUC_HILL_SLOPE 0.406, PBLUC_R_SQUARED 0.487, read-out: LUCIFERASE INFECTION ASSAY - IC50): 3.85 µM |
| Cc1ccc2c(CSc3nc(N)c(C#N)cc3C#N)cc(=O)oc2c1C | 2.94 | IC50 (FFLUC_HILL_SLOPE 4.09, FFLUC_R_SQUARED 0.386, HEPG2TOX_HILL_SLOPE 1.27, HEPG2TOX_R_SQUARED 0.917, PBLUC_HILL_SLOPE 1.89, PBLUC_R_SQUARED 0.826, read-out: LUCIFERASE INFECTION ASSAY - IC50): 0.918 µM |
| CC(=O)Nc1ccc(/C=C2\COc3c(Cl)cc(Cl)cc3C2=O)cc1 | > 10 | IC50 (FFLUC_HILL_SLOPE 4.35, FFLUC_R_SQUARED 0.359, read-out: LUCIFERASE INFECTION ASSAY - IC50): > 10 µM |
| C=CCN(c1ccccc1)S(=O)(=O)c1cccc(C(=O)Nc2ccc(CCCC)cc2)c1 | > 10 | IC50 (FFLUC_HILL_SLOPE 3.89, FFLUC_R_SQUARED 0.431, PBLUC_HILL_SLOPE 2.64, PBLUC_R_SQUARED 0.773, read-out: LUCIFERASE INFECTION ASSAY - IC50): 5.84 µM |
| Cc1cc(NC(=O)C(Nc2ccc(N3CCCC3)c(C)c2)c2ccccc2)no1 (stereo unspecified) | > 10 | IC50 (FFLUC_HILL_SLOPE 3.98, FFLUC_R_SQUARED 0.653, PBLUC_HILL_SLOPE 2, PBLUC_R_SQUARED 0.333, read-out: LUCIFERASE INFECTION ASSAY - IC50): > 10 µM |
| Cc1cccc(C)c1NC(=O)N1[C@@H]2CC[C@@H](C2)[C@H]1c1nc2c(OCCC3CCCCC3)cccc2[nH]1 | > 10 | IC50 (FFLUC_HILL_SLOPE 3.83, FFLUC_R_SQUARED 0.822, PBLUC_HILL_SLOPE 12.1, PBLUC_R_SQUARED 0.296, read-out: LUCIFERASE INFECTION ASSAY - IC50): 9.48 µM |
| Cc1onc(-c2ccc(Cl)cc2)c1-c1ccnc(SCC(=O)Nc2ccc(Cl)cc2)n1 | > 7 | IC50 (FFLUC_HILL_SLOPE 3.87, FFLUC_R_SQUARED 0.391, HEPG2TOX_HILL_SLOPE 3.01, HEPG2TOX_R_SQUARED 0.647, PBLUC_HILL_SLOPE 15.9, PBLUC_R_SQUARED 0.148, read-out: LUCIFERASE INFECTION ASSAY - IC50): 6.77 µM |
| Cc1cc(CN(C)CC(=O)Nc2sc3c(c2C(=O)Nc2ccc(Cl)cc2)CCCC3)no1 | > 10 | IC50 (FFLUC_HILL_SLOPE 4.26, FFLUC_R_SQUARED 0.612, PBLUC_HILL_SLOPE 24.8, PBLUC_R_SQUARED 0.242, read-out: LUCIFERASE INFECTION ASSAY - IC50): 9.19 µM |
| CN(C)c1ccc(C(=O)Nc2cnc3ccccc3c2)cc1 | > 10 | IC50 (FFLUC_HILL_SLOPE 4.08, FFLUC_R_SQUARED 0.429, HEPG2TOX_HILL_SLOPE 2.09, HEPG2TOX_R_SQUARED 0.742, PBLUC_HILL_SLOPE 0.628, PBLUC_R_SQUARED 0.448, read-out: LUCIFERASE INFECTION ASSAY - IC50): 0.554 µM |
| Cc1ccc(C2=NN=C/C2=N\Nc2cc(Cl)cc(Cl)c2)cc1 | 3.57 | IC50 (FFLUC_HILL_SLOPE 4.14, FFLUC_R_SQUARED 0.778, HEPG2TOX_HILL_SLOPE 3.13, HEPG2TOX_R_SQUARED 0.962, PBLUC_HILL_SLOPE 34.3, PBLUC_R_SQUARED 0.21, read-out: LUCIFERASE INFECTION ASSAY - IC50): 3.34 µM |
| O=C(Nc1ccc(Oc2cc(C(F)(F)F)cc(C(F)(F)F)c2)cc1)Nc1ccc(OC(F)(F)F)cc1 | 0.304 | IC50 (FFLUC_HILL_SLOPE 4.18, FFLUC_R_SQUARED 0.0377, HEPG2TOX_HILL_SLOPE 3.88, HEPG2TOX_R_SQUARED 0.972, PBLUC_HILL_SLOPE 90.6, PBLUC_R_SQUARED 0.773, read-out: LUCIFERASE INFECTION ASSAY - IC50): 0.297 µM |
| Oc1c(C(Nc2ccccn2)c2ccsc2)cc(Cl)c2cccnc12 (stereo unspecified) | > 8.97 | IC50 (FFLUC_HILL_SLOPE 4.25, FFLUC_R_SQUARED 0.273, HEPG2TOX_HILL_SLOPE 7.18, HEPG2TOX_R_SQUARED 0.784, PBLUC_HILL_SLOPE 2.69, PBLUC_R_SQUARED 0.266, read-out: LUCIFERASE INFECTION ASSAY - IC50): 4.02 µM |
| CCn1cc(C(=O)OCC(=O)N2N=C3/C(=C/c4ccccc4)CCCC3C2c2ccccc2)c(=O)c2ccc(C)nc21 (stereo unspecified) | 9.47 | IC50 (FFLUC_HILL_SLOPE 4.43, FFLUC_R_SQUARED 0.284, HEPG2TOX_HILL_SLOPE 6.55, HEPG2TOX_R_SQUARED 0.133, PBLUC_HILL_SLOPE 3.84, PBLUC_R_SQUARED 0.345, read-out: LUCIFERASE INFECTION ASSAY - IC50): 5.34 µM |
| COc1ccc(OC)c(-c2csc(NC(=O)c3c(C)nc(C(C)C)nc3SC)n2)c1 | > 10 | IC50 (FFLUC_HILL_SLOPE 4.18, FFLUC_R_SQUARED 0.209, HEPG2TOX_HILL_SLOPE 6.05, HEPG2TOX_R_SQUARED 0.136, PBLUC_HILL_SLOPE 1.9, PBLUC_R_SQUARED 0.115, read-out: LUCIFERASE INFECTION ASSAY - IC50): > 10 µM |
| CC(C)c1ccc(S(=O)(=O)c2ccc(NNC(=O)c3ccccc3OCc3ccc(Cl)cc3)cc2)cc1 | > 10 | IC50 (FFLUC_HILL_SLOPE 4.22, FFLUC_R_SQUARED 0.402, PBLUC_HILL_SLOPE 10.9, PBLUC_R_SQUARED 0.175, read-out: LUCIFERASE INFECTION ASSAY - IC50): 8.49 µM |
| O=C(Nc1ccc(SC(F)(F)F)cc1)Nc1ccc(Oc2ccc(Cl)cc2Cl)nc1 | 5.98 | IC50 (FFLUC_HILL_SLOPE 4.22, FFLUC_R_SQUARED 0.441, HEPG2TOX_HILL_SLOPE 15.8, HEPG2TOX_R_SQUARED 0.933, PBLUC_HILL_SLOPE 1.66, PBLUC_R_SQUARED 0.482, read-out: LUCIFERASE INFECTION ASSAY - IC50): 1.59 µM |
| Oc1c(C(c2ccc(Cl)cc2)c2cc(Cl)c3cccnc3c2O)cc(Cl)c2cccnc12 | 2.32 | IC50 (FFLUC_HILL_SLOPE 4.28, FFLUC_R_SQUARED 0.979, HEPG2TOX_HILL_SLOPE 0.496, HEPG2TOX_R_SQUARED 0.799, PBLUC_HILL_SLOPE 1.82, PBLUC_R_SQUARED 0.848, read-out: LUCIFERASE INFECTION ASSAY - IC50): 0.693 µM |
| CCN(CC)c1ccc(/C=C2\CCc3cnn(-c4nc(-c5ccccc5)cs4)c32)cc1 | > 10 | IC50 (FFLUC_HILL_SLOPE 3.85, FFLUC_R_SQUARED 0.639, read-out: LUCIFERASE INFECTION ASSAY - IC50): > 10 µM |
| CN(C)c1cccc(-c2cnc3sc(NCc4ccc(F)cc4)nn23)c1 | > 8.98 | IC50 (FFLUC_HILL_SLOPE 4.01, FFLUC_R_SQUARED 0.615, PBLUC_HILL_SLOPE 7.46, PBLUC_R_SQUARED 0.677, read-out: LUCIFERASE INFECTION ASSAY - IC50): 7.83 µM |
| Cc1ccc(C2=NN(C(=O)c3ccccc3)C(c3ccccc3O)C2)cc1 (stereo unspecified) | 8.37 | IC50 (FFLUC_HILL_SLOPE 4.22, FFLUC_R_SQUARED 0.285, HEPG2TOX_HILL_SLOPE 3.02, HEPG2TOX_R_SQUARED 0.969, PBLUC_HILL_SLOPE 1.84, PBLUC_R_SQUARED 0.813, read-out: LUCIFERASE INFECTION ASSAY - IC50): 2.54 µM |
| CC(C)NC(=O)N1CCCC(C(=O)Nc2nc3ccccc3[nH]2)C1 (stereo unspecified) | 4 | IC50 (FFLUC_HILL_SLOPE 4.02, FFLUC_R_SQUARED 0.256, PBLUC_HILL_SLOPE 1.51, PBLUC_R_SQUARED 0.42, read-out: LUCIFERASE INFECTION ASSAY - IC50): 0.935 µM |
| NC(=NNC(=S)Nc1ccc(Cl)cc1)c1ccccn1 | > 10.8 | IC50 (FFLUC_HILL_SLOPE 4.43, FFLUC_R_SQUARED 0.823, PBLUC_HILL_SLOPE 0.754, PBLUC_R_SQUARED 0.703, read-out: LUCIFERASE INFECTION ASSAY - IC50): 1.71 µM |
| Cc1ccc(C(C#N)c2ccc(NN)nn2)cc1 (stereo unspecified) | > 13.8 | IC50 (FFLUC_HILL_SLOPE 3.94, FFLUC_R_SQUARED 0.836, read-out: LUCIFERASE INFECTION ASSAY - IC50): > 13.8 µM |
| O=C1C(c2ccccc2)=C(Nc2cc(C(F)(F)F)cc(C(F)(F)F)c2)c2ccccc21 | 0.879 | IC50 (FFLUC_HILL_SLOPE 4.26, FFLUC_R_SQUARED 0.731, HEPG2TOX_HILL_SLOPE 18.3, HEPG2TOX_R_SQUARED 0.933, PBLUC_HILL_SLOPE 2.24, PBLUC_R_SQUARED 0.855, read-out: LUCIFERASE INFECTION ASSAY - IC50): 0.329 µM |
| CCc1cccc(CC)c1N(C(C)=O)c1nc(/C=C/C(=O)c2cc3ccccc3o2)cs1 | 6.49 | IC50 (FFLUC_HILL_SLOPE 3.93, FFLUC_R_SQUARED 0.771, PBLUC_HILL_SLOPE 5.3, PBLUC_R_SQUARED 0.865, read-out: LUCIFERASE INFECTION ASSAY - IC50): 4.29 µM |
| N#Cc1nc(-c2ccccc2)nc2[nH]c(-c3ccccc3)c(C#N)c12 | 9.81 | IC50 (FFLUC_HILL_SLOPE 4.02, FFLUC_R_SQUARED 0.58, HEPG2TOX_HILL_SLOPE 1.18, HEPG2TOX_R_SQUARED 0.976, PBLUC_HILL_SLOPE 16.6, PBLUC_R_SQUARED 0.228, read-out: LUCIFERASE INFECTION ASSAY - IC50): 8.59 µM |
| C=CCNc1sc(C(=O)/C(C#N)=C2\Nc3ccccc3S2)c(N)c1C(=O)Nc1ccc(Cl)cc1 | 4.13 | IC50 (FFLUC_HILL_SLOPE 4, FFLUC_R_SQUARED 0.164, HEPG2TOX_HILL_SLOPE 6.65, HEPG2TOX_R_SQUARED 0.57, PBLUC_HILL_SLOPE 11, PBLUC_R_SQUARED 0.696, read-out: LUCIFERASE INFECTION ASSAY - IC50): 3.38 µM |
